Measurements taken from ChEMBL document CHEMBL5726257, “Sphingosine 1-phosphate receptor antagonists” (2017).

Legend:
[1] = molecular target: Sphingosine 1-phosphate receptor 2 (Homo sapiens, UniProt O95136); test: (§1) In Vitro Binding Assay: I. Master Stock SolutionUnless specified otherwise, the sample compounds were diluted in 100% anhydrous DMSO including all dilutions. The compounds were tested as the citrate salt (1 equivalent per molecule). If the sample compound is provided in a different solvent all master stock dilutions are performed in the specified solvent. All control wells contained identical solvent final concentrations as the sample compound wells.II. Compound Plate AssayThe sample compounds were transferred from a master stock solution into a daughter plate that was used in the assay. Each sample compound was diluted into an assay buffer (1×HBSS with 20 mM HEPES, 2.5 mM Probenecid, and 0.4% Free Fatty Acid BSA) at an appropriate concentration to obtain final specified concentrations.III. Antagonist Assay FormatUsing the EC80 values that were determined real-time, stimulated all pre-incubated sample compounds and reference antagonists (if applicable) were compared with the EC80 values of reference agonist. These were read for 180 seconds using the […] (This assay added reference agonist to respective wells-then fluorescences measurements were collected to calculate IC50 values).
Sphingosine 1-phosphate receptor 2, sequence (O95136 whole entry): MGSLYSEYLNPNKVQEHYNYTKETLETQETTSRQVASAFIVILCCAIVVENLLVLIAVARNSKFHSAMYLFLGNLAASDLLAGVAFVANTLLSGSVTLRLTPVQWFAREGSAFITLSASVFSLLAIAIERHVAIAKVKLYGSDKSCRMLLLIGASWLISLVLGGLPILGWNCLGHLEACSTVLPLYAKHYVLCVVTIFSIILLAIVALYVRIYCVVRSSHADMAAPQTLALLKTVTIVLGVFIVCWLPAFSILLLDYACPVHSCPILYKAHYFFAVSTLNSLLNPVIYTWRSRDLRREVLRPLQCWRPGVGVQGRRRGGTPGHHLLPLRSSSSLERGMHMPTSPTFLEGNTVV

[2] = molecular target: Sphingosine 1-phosphate receptor 5 (Homo sapiens, UniProt Q9H228); test: as §1
Sphingosine 1-phosphate receptor 5, sequence (Q9H228 whole entry): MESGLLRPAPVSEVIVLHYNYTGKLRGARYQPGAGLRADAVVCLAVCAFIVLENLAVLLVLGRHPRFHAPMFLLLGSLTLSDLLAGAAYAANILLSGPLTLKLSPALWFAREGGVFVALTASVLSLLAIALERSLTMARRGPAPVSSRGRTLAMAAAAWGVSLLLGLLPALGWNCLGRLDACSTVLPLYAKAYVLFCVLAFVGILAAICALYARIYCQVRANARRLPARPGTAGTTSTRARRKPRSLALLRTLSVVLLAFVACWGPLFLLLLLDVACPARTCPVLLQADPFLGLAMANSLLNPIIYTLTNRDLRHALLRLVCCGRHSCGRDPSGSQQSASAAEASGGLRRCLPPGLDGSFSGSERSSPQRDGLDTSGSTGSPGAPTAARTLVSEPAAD

Work on `Cc1nn(C)c2nc(N(CCCO)NC(=O)Nc3cc(Cl)nc(Cl)c3)cc(C(C)C)c12` yielded an IC50 [1] of 0.019 µM and an IC50 [2] of 0.012 µM.
In the case of `C=CCN(NC(=O)Nc1cc(Cl)nc(Cl)c1)c1cc(C(C)C)c2c(C)nn(C)c2n1`, the IC50 [1] is reported as 0.052 µM and the IC50 [2] is reported as 0.11 µM.
